Experimental data published in patent US20230062911A1, “COMPOSITIONS AND METHODS FOR TREATING, PREVENTING, AND/OR AMELIORATING CHEMOTHERAPY-INDUCED PREMATURE OVARIAN FAILURE (POF)” (Rutgers, The State University of New Jersey, priority 2021, published 2023).
Entries after “also recorded” stand apart in the source; their conditions may differ.

What was measured:
γ-H2AX = assay: Ovarian expression of γ-H2AX (DNA damage marker) after DOX, immunostaining and western blot; format: in vivo
Method: (§1) FIG. 2B provides a western blot showing expression of γH2AX and pTAp63α at 3 h and 6 h. The mobility shift of TAp63α indicated phosphorylation (i.e., p-TAp63α), which further indicated cell death initiation through apoptosis.
Expression of γ-H2AX, a well-characterized biomarker of DNA double strand breaks (DDSBs) as well as the major mechanism of DOX’s cytotoxicity on tumorous cells, was detected with administration of DOX.

TAp63α = assay: Phosphorylation of TAp63α in ovaries, immunostaining and western blot; format: in vivo, CD-1 female mice
Method: as §1
TAp63a functions to respond to DNA damage that results in its phosphorylation and subsequent oocyte apoptosis initiation in the primordial follicles.
(§2) Next, 5-day-old CD-1 female mice were intraperitoneally injected with 10 mg/kg DOX and 50 mg/kg SP600125, a specific JNK inhibitor.

[1] = test system: JNK (c-Jun N-terminal kinase) signaling pathway; assay: RNA sequencing / Gene Ontology analysis of ovaries after DOX; format: in vivo, CD-1 female mice; details: 5-day-old mice, DOX 10 mg/kg i.p., ovaries at 6 hours
Method: Thus, the molecular mechanisms of DOX-induced primordial follicle oocyte apoptosis were investigated as described herein. Fiveday-old CD-1 female mice were intraperitoneally injected with vehicle or 10 mg/kg DOX and ovaries were harvested at 6 hours for RNA sequencing.

JNK = assay: Phosphorylation of JNK in oocytes of primordial follicles, western blot and immunostaining; format: in vivo, CD-1 female mice; details: for activation of JNK in the oocytes of primordial follicles: general statement, no dose given
ovarian follicles = assay: Follicle counting 6 weeks after treatment of 21-day-old mice; format: in vivo, CD-1 female mice
Source text: Ovarian functions were examined at 6-weeks after treatment in order to evaluate the long-term effect of pharmacological JNK inhibition on female ovarian reserve and other ovary reproductive outcomes.

CD-1 female mice = assay: Ovarian cyclicity by vaginal smear in 21-day-old treated mice; format: in vivo; details: 21-day-old mice, last 14 days of 6 weeks post treatment
Source text: The transition of various estrous cycle stages of three representative mice (a total of 6-8 mice in each group) are shown for each treatment group, including proestrus, estrus, metestrus, and diestrus.
Ovarian cyclicity was next examined by the method of vaginal smear in the last 14 days of the 6-week post DOX / SP600125 treatment.

Bax, Puma, Noxa = assay: qRT-PCR of apoptosis mediators in whole neonatal ovaries; format: in vivo, CD-1 female mice; details: co-treatment with DOX
Method: as §2

primordial follicles = assay: DOX-induced primordial follicle loss in 5-day-old mice; format: in vivo, CD-1 female mice; details: co-treatment SP600125 50 mg/kg with DOX 10 mg/kg i.p.
Method: as §2

| Structure (SMILES) | expression of γ-H2AX in ovarian epithelial cells and oocytes (γ-H2AX; DOX 10 mg/kg i.p., 6 h) | time at which increased γ-H2AX expression peaked (γ-H2AX; after DOX treatment, western blot) | phosphorylation of TAp63a in ovaries (TAp63α; 6 h after DOX treatment, western blot) | expression of phospho-p63 in oocytes of primordial follicles (TAp63α; 6 h post DOX treatment, immunostaining) | JNK signaling pathway by RNA sequencing Gene Ontology analysis [1] | phosphorylation of JNK in the oocytes of primordial follicles (JNK; 5-day-old mice, DOX 10 mg/kg i.p., 6 h) | activation of JNK in the oocytes of primordial follicles (JNK) | numbers of all stages of ovarian follicles (primordial, primary, secondary, antral) (ovarian follicles; DOX alone) | ovarian cyclicity (estrous cycle stages) (CD-1 female mice; DOX alone) | effect on DOX-induced hyper-phosphorylation of TAp63α (TAp63α; 5-day-old mice, SP600125 50 mg/kg i.p. with DOX 10 mg/kg i.p., western blot) | effect on cisplatin-induced phosphorylation of TAp63α (TAp63α; 5-day-old mouse ovaries, SP600125 50 mg/kg i.p. with cisplatin 20 mg/kg i.p.) | effect on DOX-induced transcriptional induction of Bax (Bax, Puma, Noxa) | effect on DOX-induced transcriptional induction of Noxa (Bax, Puma, Noxa) | effect on DOX-induced transcriptional induction of Puma (Bax, Puma, Noxa) | effect on DOX-induced primordial follicle loss (primordial follicles) | numbers of all staged follicles (ovarian follicles; SP600125 alone) | effect on DOX-induced reduction of all stages of follicles (ovarian follicles; co-treatment with DOX) | ovarian cyclicity (estrous cycle stages) (CD-1 female mice; DOX / SP600125 co-treatment) | ovarian cyclicity (estrous cycle stages) (CD-1 female mice; SP600125 alone) |
| --- | --- | --- | --- | --- | --- | --- | --- | --- | --- | --- | --- | --- | --- | --- | --- | --- | --- | --- | --- |
| COc1cccc2c1C(=O)c1c(O)c3c(c(O)c1C2=O)C[C@@](O)(C(=O)CO)C[C@@H]3O[C@H]1C[C@H](N)[C@@H](O)[C@H](C)O1 [DOX, (8S,10S)-10-(((2R,4S,5R,6S)-4-amino-5-hydroxy-6-methyltetrahydro-2H-pyran-2-yl)oxy)-6,8,11-trihydroxy-8-(2-hydroxyacetyl)-1-methoxy-7,8,9,10-tetrahydrotetracene-5,12-dione] | significantly increased | 6 h | hyper-phosphorylated | significantly induced | significantly changed; also recorded: activated | selectively increased; also recorded: selective hyper-phosphorylation | selectively activate | remarkably reduced | interfered with mouse ovarian cyclicity |  |  |  |  |  |  |  |  |  |  |
| O=C1c2ccccc2-c2n[nH]c3cccc1c23 [SP600125, dibenzo[cd,g]indazol-6(2H)-one] |  |  |  |  |  |  |  |  |  | effectively prevented; also recorded: blocked the phosphorylation | blocked the phosphorylation | prevented the transcriptional induction | prevented the transcriptional induction | prevented the transcriptional induction | significantly ameliorated; also recorded: prevented DOX-induced primordial follicle loss | did not affect | effectively prevented the reduction | comparable ovarian cyclicity to the control group | comparable ovarian cyclicity to the control group |
| N.N.[Cl][Pt][Cl] [cisplatin, cis-diammineplatinum (II) dichloride] |  |  |  |  |  |  | selectively activate |  |  |  |  |  |  |  |  |  |  |  |  |
